Experimental data from patent US20090214607A1, “Topical use of teprenone” (SEDERMA, priority 2005, published 2009).

Columns and labels:
Thioredoxin = Thioredoxin in cellular supernatant of human fibroblasts (ELISA), with or without UVA; format: cell-based; settings: for Thioredoxin rate in cellular supernatant: 10^−3%
Procedure: Normal human fibroblasts were tested to ascertain whether exposure to teprenone would stimulate thioredoxin expression in the cellular supernatants.
Human fibroblasts (FHN) in culture were irradiated with UVA (4 and 6 J/cm^2) or not irradiated (control). 24 h before the irradiation, these cells were grown without or with teprenone (GGA at 10^−3%). After irradiation, each case received the same medium (with or without GGA) as before irradiation. Incubations of 24 or 48 h with these fresh mediums were made. Thioredoxin in the cellular supernants was estimated using ELISA method. The results obtained are recapitulated in Table 3

[1] = system: Normal human fibroblasts (NHF); test: Replicative senescence: variation of division number; format: cell-based; settings: 1 and 3 μM; long-term contact; 64th day to 95th day
Procedure: Replicative senescence reflects the aging of cells in cultures as they are serially sub-cultured. Normal human fibroblasts (NHF) were cultured in the absence or presence of 1 and 3 μM teprenone. At regular intervals, without awaiting confluence, the cells were counted, observed and sub-cultured at the same rate.

catalase = test: Catalase activity in human skin explants after UVB (Clairborne-Aebi method); format: cell-based; settings: for protective effect on enzymatic activity of catalase: vs UVB; for catalase activity: after UVB 2 J/cm2
Procedure: Human skin explants obtained from a patient having undergone plastic surgery were cultured with or without teprenone or Trolox (positive control) for 48 hours then exposed to UV B radiation (2 J/cm^2). After irradiation, the explants were again cultured in fresh medium with or without teprenone or Trolox for 24 hours. Similars explants were also used in immunolabeling tests on heat shock proteins (HSP) and in the apoptosis study.
Catalase anti-oxidant activity was determined by the Clairborne-Aebi method. Hydrogen peroxide (H2O2) consumption is directly proportional to catalase activity. The consumption was determined by spectrophotometry at 240 nm

[2] = system: sunburn cells (SBC) in human skin explants; test: Sunburn cells (SBC) in human skin explants after UVB; format: cell-based; settings: for % SBC (Sun Burn Cells): after UVB 2 J/cm^2
Procedure: With a view to determining the action of teprenone as per the invention, the effect of the active substance on the presence of sunburn cells (SBC) and apoptotic cell in human skin explants was investigated.
Human skin explants are treated in a way similar to the preceding experiment of description of the protective role of the teprenone on the catalase activity (obtained from a patient having undergone plastic surgery, cultured with or without teprenone for 48 hours then exposed to UV B radiation (2 J/cm^2). After irradiation, the explants were again cultured in fresh medium with or without teprenone for 24 hours).
SBC were evidenced on paraffin-wax-embedded skin explant sections by staining with […]. SBC, apoptotic keratinocytes with pyknotic nuclei and eosinophilic cytoplasm, are characteristic of mammalian epidermis exposed to UV B radiation.

NHEK = NHEK cell re-colonization after scraping and irradiation; format: cell-based, human; settings: 3 · 10^−5%
Procedure: NHEK were inoculated into Labtech microplates and cultured to post-confluence with or without teprenone. The cultures were then mechanically scraped and exposed to radiation at a dose level of 0, 5 or 10 Gy. The percentage area re-colonized post-irradiation was determined.

IL8 = IL8 in supernatant of γ-irradiated NHEK cells (ELISA); format: cell-based, human; settings: for decrease of IL8: vs irradiated control; for expression of IL8: γ-irradiation 5 Gγ, 4 days
Procedure: In order to determine the action of teprenone as per the invention, the effect of GGA on the IL8 and VEGF expression was investigated in the supernatants of irradiated (with 5 Gy) NHEK cells. After γ-irradiation, NHEK cells are treated during 4 days with or without GGA at differents concentrations. The amount of IL8 and VEGF present in the cells supernatant is determined with ELISA method.

## CC(=O)CCC=C(C)CCC=C(C)CCC=C(C)CCC=C(C)C [Teprenone, 6,10,14,18-tetramethyl-5,9,13-nonadecatetren-2-one]
Thioredoxin; UVA 4 J/cm^2, incubation 24 h
  Thioredoxin rate in cellular supernatant: 24.3 ng/mg protein
Thioredoxin; UVA 4 J/cm^2, incubation 48 h
  Thioredoxin rate in cellular supernatant: 32.4 ng/mg protein
Thioredoxin; UVA 6 J/cm^2, incubation 24 h
  Thioredoxin rate in cellular supernatant: 43.7 ng/mg protein
Thioredoxin; UVA 6 J/cm^2, incubation 48 h
  Thioredoxin rate in cellular supernatant: 59.2 ng/mg protein
Thioredoxin; not irradiated, incubation 24 h
  Thioredoxin rate in cellular supernatant: 11.6 ng/mg protein
Thioredoxin; not irradiated, incubation 48 h
  Thioredoxin rate in cellular supernatant: 28.5 ng/mg protein
Thioredoxin; 24 h incubation, 4 J/cm^2
  increase of thioredoxin rate in the cellular supernatant: +30%
Thioredoxin; 24 h incubation, 6 J/cm^2
  increase of thioredoxin rate in the cellular supernatant: +40%
Thioredoxin; 24 h incubation, without irradiation
  increase of thioredoxin rate in the cellular supernatant: +60%
Thioredoxin; 48 h incubation, 4 J/cm^2
  increase of thioredoxin rate in the cellular supernatant: +50%
Thioredoxin; 48 h incubation, 6 J/cm^2
  increase of thioredoxin rate in the cellular supernatant: 40%
Thioredoxin; 48 h incubation, non irradiated
  increase of thioredoxin rate in the cellular supernatant: +150%
[1]
  capacities of divisions of the cells: level higher compared to the control
catalase; 0.05 mM
  protective effect on enzymatic activity of catalase: +40%
  catalase activity: 125 UI/mg of protein
catalase; 0.1 mM
  protective effect on enzymatic activity of catalase: +45%
  catalase activity: 130 UI/mg of protein
[2]; 0.05 mM
  % SBC (Sun Burn Cells): 45%
[2]; 0.1 mM
  % SBC (Sun Burn Cells): 27%
[2]; after UVB, vs irradiated
  diminution of SBC: −66%
NHEK; 5 Gγ
  % on NHEK re-colonization 24 hours after: faster re-colonization
NHEK; 5 Gγ, listed as GGA
  % on NHEK re-colonization 24 hours after: 80%
NHEK; 10 Gγ
  % on NHEK re-colonization 24 hours after: 60%
NHEK; not irradiated
  % on NHEK re-colonization 24 hours after: 62%
IL8; 1.10^−4%
  decrease of IL8: −67%
IL8; 3.10^−5%
  decrease of IL8: −50%
IL8; 1 · 10^−4%
  expression of IL8: 2.12 pg/10^5 cells
IL8; 3 · 10^−5%
  expression of IL8: 3.25 pg/10^5 cells
